Experimental data published in PubChem BioAssay AID179 (DTP/NCI, 2004).
Values joined by “and” are separate entries in the source; they are usually repeats but may differ in a detail not shown here. Identical values can stand only once. Active and inactive are the calls of the source.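 How the source made its calls: active means compounds giving half or more protection of infected cells from virus-caused growth loss, again on retest; inactive means the rest.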

Test system: CEM cells HIV-1 protection, formazan growth assay
Assay: NCI AIDS Antiviral Assay
Conditions: for IC50: measured here: growth of uninfected CEM cells
Method in brief: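 Human CEM cells, uninfected and HIV-1-infected, exposed to five drug concentrations; growth measured by soluble formazan assay and scored as percent protection from infection, with protecting compounds retested.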

| SMILES | EC50 | IC50 | outcome |
| --- | --- | --- | --- |
| CCN(C)c1nc(N(C)CC)c2nc(N(C)CC)nc(N(C)CC)c2n1 | > 501 µM | 120 µM |  |
| N#Cc1nc(COCCOCc2ccccc2)oc1N | > 110 µM | 107 µM |  |
| CC(C)(C)c1cc2c3c(c1)C(C(F)(F)F)(C(F)(F)F)O[Te]3(C)OC2(C(F)(F)F)C(F)(F)F | > 31.6 µM | > 31.6 µM |  |
| O=c1cc(-c2ccccc2)oc2ccc(O)cc12 | > 200 µM | 67.6 µM |  |
| CC(=O)OCC1C(OC(C)=O)C(OC(C)=O)C(OC(C)=O)P1(=O)c1ccccc1 (configuration not stated) | > 589 µM | 537 µM |  |
| CC1OC(n2cc(C(F)(F)F)c(=O)[nH]c2=O)C=CC1=O (configuration not stated) | > 447 µM | 3.39 µM |  |
| Cc1cc(=O)[nH]c(-n2[nH]c3c(c2=O)CCCC3)n1 | > 200 µM | 24.5 µM |  |
| C/C(O)=C(\N=O)C(=O)NCCc1ccccc1 | > 288 µM | > 288 µM |  |
| CCOC(=O)NC(=O)c1cn(CCCOC(=O)CCCCCCCCC(=O)OCCCn2cc(C(=O)NC(=O)OCC)c(=O)[nH]c2=O)c(=O)[nH]c1=O |  |  | inactive |
| O=c1cc(O)c2ccccc2[nH]1 | > 200 µM | > 200 µM |  |
| CC1=CC(C)(C)NC(=S)N1c1ccc(C)c(N2C(=S)NC(C)(C)C=C2C)c1 |  |  | inactive |
| Cc1ccc(NC(=O)COC(=O)c2cccc3c(=O)c4ccccc4[nH]c23)cc1 |  |  | inactive |
| CCC1(OC(=O)CN)C(=O)OCc2c1cc1n(c2=O)Cc2cc3ccccc3nc2-1 (configuration not stated) | > 10 µM | 0.00692 µM |  |
| O=C(Nc1cccc2ccccc12)Oc1ccccc1C1CCCCC1 |  |  | inactive |
| COc1ccc(OC)c2c3c(ccc12)C(C)(c1ccccc1)OC3=O (configuration not stated) | > 191 µM | 89.1 µM |  |
| CN(C)Cc1cc(C(=O)/C=C/c2ccc(Cl)cc2)cc(CN(C)C)c1O | > 200 µM | 9.12 µM |  |
| C1CSCCSCCCSC2CCCCC2SC1 (configuration not stated) | > 22.4 µM | > 22.4 µM |  |
| CC1=NN(C(=O)c2ccc(Cl)cc2)C(=O)/C1=C/c1cccc([N+](=O)[O-])c1 | > 19.5 µM | > 19.5 µM |  |
| N#C/C(=C\c1ccc(O)c(O)c1)C(=O)NCCCCCNC(=O)/C(C#N)=C/c1ccc(O)c(O)c1 | > 200 µM | 11.5 µM |  |
| Oc1cc(O)c(C2c3ccc(O)cc3OC(c3ccc(O)c(O)c3)C2O)c(O)c1 (configuration not stated) | > 46.8 µM | > 46.8 µM |  |
| CCN(C(=O)N[C@H](C(=O)N[C@@H](C)C(=O)OC)C(C)C)c1ccccc1 | > 200 µM | 35.5 µM |  |
| O=c1c(-c2ccc(O)cc2)coc2cc(O)cc(O)c12 | > 200 µM | 5.62 µM |  |

| SMILES | EC50 | IC50 | outcome |
| --- | --- | --- | --- |
| O=[N+]([O-])C(=C/c1cccs1)/C(=C\c1cccs1)[N+](=O)[O-] | > 200 µM | 1.55 µM |  |
| Cc1ccc(Nc2nc(=O)[nH]c(=O)[nH]2)cc1N=[N+]=[N-] | > 200 µM | > 200 µM |  |
| Cn1c(=O)nc2n(-c3cccc(Br)c3)c3ccccc3nc-2c1=O |  |  | inactive |
| CN(C)Cc1cc(C(=O)/C=C/c2ccccc2Cl)cc(CN(C)C)c1O | > 200 µM | 7.24 µM |  |
| NC(N)=NCCCC(N)C(=O)O (configuration not stated) | > 200 µM | > 200 µM |  |
| C/C(CN1C(=O)c2ccccc2C1=O)=N\NS(=O)(=O)c1cccc(C(=O)O)c1 | > 309 µM | > 309 µM |  |
| CC[N+](C)(CC)CCNC(=O)C(O)(c1ccccc1)c1ccccc1 | > 200 µM | > 200 µM |  |
| S=c1c2ccccc2c(=S)n(-c2ccccc2)n1-c1ccccc1 | > 200 µM | > 200 µM |  |
| N#CNC(=NCc1ccccc1)NCc1ccccc1 | 200 µM | 339 µM |  |
| Cc1ccc2nn(-c3ccc(O)cc3)nc2c1 |  |  | inactive |
| O=C1C(c2ccccc2)=[N+]([O-])c2ccc(Cl)cc21 |  |  | inactive |
| N#CCCN(CCC#N)c1ccc(C(=O)NN)cc1 | > 363 µM | 288 µM |  |
| OC12c3ccccc3C1(N1CCOCC1)CCCCC21OCCCO1 (configuration not stated) | 170 µM | 295 µM |  |
| COc1ccc(-c2coc3c(OC)c(OC)c(OC)c(OC)c3c2=O)cc1 | > 200 µM | 44.7 µM |  |
| O=c1c2ccccc2n2c(=S)[nH]nc2n1-c1ccccc1 | > 200 µM | > 200 µM |  |
| O=C(CC1(O)C(=O)Nc2c(Cl)cccc21)c1ccccc1 (configuration not stated) | > 832 µM | 158 µM |  |
| Cn1c(=O)n(C2(C)C[Se]C2)c2ccccc21 | > 468 µM | 166 µM |  |
| CC(C)(C)C1CC[C@H]2c3c([nH]c4ccc(Br)cc34)[C@H]3C(=O)N(c4ccccc4)C(=O)[C@H]3[C@H]2C1 (some centres not stated) | > 7.24 µM | > 7.24 µM |  |
| CC1(O)CC2C(CC1SCc1ccccc1)C2(C)C (configuration not stated) | > 200 µM | 34.7 µM and 20 µM |  |
| Cn1c(=O)c(C(=O)Nc2nc(C34CC5CC(CC(C5)C3)C4)cs2)c(O)c2ccccc21 | > 100 µM | > 100 µM |  |
| N#CC(C(=O)Nc1ccccc1)C1=C(Cl)C(=O)c2ccccc2C1=O (configuration not stated) | > 251 µM | 39.8 µM |  |
| CCN1C(=O)CS/C1=N\NC(=O)CSc1nc2ccccc2c(=O)n1CC | > 200 µM | 151 µM |  |

| SMILES | EC50 | IC50 | outcome |
| --- | --- | --- | --- |
| COC(=O)/C=C\C(C#N)(C#N)N=Cc1cc(Br)cs1 | > 2 µM | 0.676 µM |  |
| S=C(NCCNC(=S)SSC(=S)NNc1ccccc1)SSC(=S)NNc1ccccc1 | > 200 µM | 17.4 µM |  |
| O=S(=O)(c1ccc(NC(=S)Nc2ccccc2)cc1)c1ccc(NC(=S)Nc2ccccc2)cc1 | > 200 µM | > 200 µM |  |
| O=C(c1cccs1)N1CCc2ccccc2C1 | > 162 µM | 107 µM |  |
| Cc1nc2c(ccc3c(C)c(C)c(C)nc32)c(C)c1C.Cc1nc2c(ccc3c(C)c(C)c(C)nc32)c(C)c1C.O=C1OC(C(O)C[O-])C(O)=C1O.[Cu+] | > 12.6 µM | 0.692 µM |  |
| COCOc1ccc(C(=O)Oc2cccc3c2OC(C)(C)O3)c(OCOC)c1 | > 200 µM | 35.5 µM |  |
| O=C(O)CCC(NC(=O)c1ccc(Nc2nc3ccccc3nc2-c2cccs2)cc1)C(=O)O (configuration not stated) | > 525 µM | 457 µM |  |
| CCOC(=O)c1c(/C=N\Nc2ccccc2)nc2ccccc2c1-c1ccccc1 | > 64.6 µM | 26.3 µM |  |
| CC[C@@H]1C2CC3C4N(C)c5ccccc5[C@]45C[C@@H](C2C5O)N3C1O (some centres not stated) |  |  | inactive |
| CN1CCCC2[C@@H]3CCC4c5nonc5CC[C@]4(C)C3CC[C@@]21C (some centres not stated) | > 55 µM | > 55 µM |  |
| Cc1cn(C2CC(O[Si](C)(C)C(C)(C)C)C(/C=[N+](/[O-])C(C)(C)C)O2)c(=O)[nH]c1=O (configuration not stated) | > 120 µM | 33.9 µM |  |
| Cc1cc(Cl)n2nc(-c3ccc(Cl)cc3)nc2n1 | > 49 µM | > 49 µM |  |
| CCc1c(Cc2cc(C)cc(C)c2)n(COCCC[Se]c2ccccc2)c(=O)[nH]c1=O | 0.407 µM | 12 µM |  |
| Nc1ncnc2c1ncn2C1OC(COP(=O)(O)CP(=O)(O)O)C(O)C1O (configuration not stated) | > 200 µM | > 200 µM |  |
| CC(C)CC(NC(=O)c1cccc(O)c1O)C(=O)NCc1cc(CNC(=O)C(CC(C)C)NC(=O)c2cccc(O)c2O)cc(CNC(=O)C(CC(C)C)NC(=O)c2cccc(O)c2O)c1 (configuration not stated) |  |  | inactive |
| CCn1nc(C(=O)O)c(=O)c2cc3c(cc21)OCO3 | > 200 µM | > 200 µM |  |
| CCCCCCCCOP(=O)(/C=C/c1ccccc1)OCCCCCCCC | > 6.61 µM | > 6.61 µM |  |
| Nc1ccc(C(=O)N/C(=C\c2cccc([N+](=O)[O-])c2)c2nc3ccc(Cl)cc3[nH]2)cc1 |  |  | inactive |
| CCCN=C(NNC(N)=O)C(C)=O | > 1350 µM | 1100 µM |  |
| O=C1CCCCC1CN1CCCC1 (configuration not stated) |  |  | inactive |
